Data on one compound can be found in publication PMC4621755 (Chemistry & biology, 2015).

The target in the experiment is T1, Acaa2 (Mus musculus, UniProt Q8BWT1).
T1 sequence (Q8BWT1 1-397): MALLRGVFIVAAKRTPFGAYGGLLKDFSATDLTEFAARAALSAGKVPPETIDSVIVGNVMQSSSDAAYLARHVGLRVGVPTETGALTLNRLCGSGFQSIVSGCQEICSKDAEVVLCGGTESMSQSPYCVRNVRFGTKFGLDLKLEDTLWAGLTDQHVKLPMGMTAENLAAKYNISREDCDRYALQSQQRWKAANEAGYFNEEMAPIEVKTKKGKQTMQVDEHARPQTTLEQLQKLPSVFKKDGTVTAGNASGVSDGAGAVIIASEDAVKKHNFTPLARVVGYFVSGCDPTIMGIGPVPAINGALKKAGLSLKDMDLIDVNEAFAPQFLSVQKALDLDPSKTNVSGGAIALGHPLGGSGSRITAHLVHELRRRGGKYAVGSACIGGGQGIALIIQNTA
The experiment is described as follows: competition against IAyne labelling, in-gel fluorescence. It is filed as biochemical. The settings on record: covalent; lysate of overexpressing HEK293T; 30 min preincubation.

Each structure is given as a SMILES string.

Take `N#Cc1c(Cl)c(Cl)c(Cl)c(C#N)c1Cl` [chlorothalonil]: the “% reduction in IAyne labeling at 100 nM” value is 9.4 ± 1.2%.
